How the values were obtained:
Assay in all cases: KinaseProfiler Assay
Aurora-A(h) = biological target: T1, Aurora-A(h) (Homo sapiens, UniProt O14965)
T1 sequence (O14965 1-403): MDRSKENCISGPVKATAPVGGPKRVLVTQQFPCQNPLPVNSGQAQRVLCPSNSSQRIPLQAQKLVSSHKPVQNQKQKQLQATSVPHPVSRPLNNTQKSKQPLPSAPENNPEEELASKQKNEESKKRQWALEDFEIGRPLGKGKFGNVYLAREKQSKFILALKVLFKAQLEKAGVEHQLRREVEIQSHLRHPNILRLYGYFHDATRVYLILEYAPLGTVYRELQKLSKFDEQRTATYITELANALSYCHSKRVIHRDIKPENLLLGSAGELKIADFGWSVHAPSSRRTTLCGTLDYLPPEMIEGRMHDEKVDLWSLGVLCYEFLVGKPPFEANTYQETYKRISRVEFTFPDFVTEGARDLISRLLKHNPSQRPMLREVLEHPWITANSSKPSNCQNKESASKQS

CDK3/cyclinE(h) = CDK3/cyclinE(h) (Homo sapiens, UniProt Q00526)
CK1δ(h) = CK1δ(h) (Homo sapiens, UniProt P48730)
GRK7(h) = biological target: T2, GRK7(h) (Homo sapiens, UniProt Q8WTQ7)
T2 sequence (Q8WTQ7 1-553): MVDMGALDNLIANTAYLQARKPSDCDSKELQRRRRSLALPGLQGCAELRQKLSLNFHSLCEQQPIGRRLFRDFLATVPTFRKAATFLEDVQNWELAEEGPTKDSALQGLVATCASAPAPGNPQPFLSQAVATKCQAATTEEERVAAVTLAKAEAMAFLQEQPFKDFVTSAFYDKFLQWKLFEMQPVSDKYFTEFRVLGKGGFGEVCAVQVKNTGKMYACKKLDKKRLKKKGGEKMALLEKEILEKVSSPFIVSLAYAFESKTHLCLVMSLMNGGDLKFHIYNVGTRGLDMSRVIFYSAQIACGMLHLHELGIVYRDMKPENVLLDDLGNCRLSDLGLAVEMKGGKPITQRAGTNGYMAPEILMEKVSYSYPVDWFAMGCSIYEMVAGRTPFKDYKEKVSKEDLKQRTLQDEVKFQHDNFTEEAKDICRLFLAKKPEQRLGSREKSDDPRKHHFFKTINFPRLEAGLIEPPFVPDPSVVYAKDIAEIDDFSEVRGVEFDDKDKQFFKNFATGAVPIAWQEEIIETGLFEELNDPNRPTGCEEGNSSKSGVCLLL

MARK1(h) = MARK1(h) (Homo sapiens, UniProt Q9P0L2)
MST3(h) = MST3(h) (Homo sapiens, UniProt Q9Y6E0)
MuSK(h) = biological target: T3, MuSK(h) (Homo sapiens, UniProt O15146)
T3 sequence (O15146 24-869): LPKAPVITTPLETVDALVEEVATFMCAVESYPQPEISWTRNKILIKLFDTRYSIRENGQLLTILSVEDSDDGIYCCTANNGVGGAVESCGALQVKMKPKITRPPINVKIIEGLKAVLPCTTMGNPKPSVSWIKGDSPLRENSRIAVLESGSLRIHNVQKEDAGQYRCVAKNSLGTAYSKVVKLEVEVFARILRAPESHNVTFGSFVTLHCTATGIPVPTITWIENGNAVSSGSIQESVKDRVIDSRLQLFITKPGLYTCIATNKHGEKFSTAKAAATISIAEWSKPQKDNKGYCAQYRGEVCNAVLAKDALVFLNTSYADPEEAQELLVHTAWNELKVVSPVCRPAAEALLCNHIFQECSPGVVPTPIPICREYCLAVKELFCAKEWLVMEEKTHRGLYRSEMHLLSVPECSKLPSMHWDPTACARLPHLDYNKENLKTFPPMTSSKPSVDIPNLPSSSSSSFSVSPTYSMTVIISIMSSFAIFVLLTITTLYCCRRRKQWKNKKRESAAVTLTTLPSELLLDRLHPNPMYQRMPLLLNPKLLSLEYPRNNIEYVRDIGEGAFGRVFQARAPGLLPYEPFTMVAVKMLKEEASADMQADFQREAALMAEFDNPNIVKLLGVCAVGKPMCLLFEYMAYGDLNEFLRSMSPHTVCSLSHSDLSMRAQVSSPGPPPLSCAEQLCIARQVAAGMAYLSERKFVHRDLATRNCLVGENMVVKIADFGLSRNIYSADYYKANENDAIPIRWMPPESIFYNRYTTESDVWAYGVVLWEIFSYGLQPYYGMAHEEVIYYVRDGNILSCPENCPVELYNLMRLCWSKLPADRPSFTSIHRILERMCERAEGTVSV

PKCβII(h) = PKCβII(h) (Homo sapiens, UniProt P05771)
PTK5(h) = PTK5(h) (Homo sapiens, UniProt P42685)
Sequence of PTK5(h) (P42685 whole entry): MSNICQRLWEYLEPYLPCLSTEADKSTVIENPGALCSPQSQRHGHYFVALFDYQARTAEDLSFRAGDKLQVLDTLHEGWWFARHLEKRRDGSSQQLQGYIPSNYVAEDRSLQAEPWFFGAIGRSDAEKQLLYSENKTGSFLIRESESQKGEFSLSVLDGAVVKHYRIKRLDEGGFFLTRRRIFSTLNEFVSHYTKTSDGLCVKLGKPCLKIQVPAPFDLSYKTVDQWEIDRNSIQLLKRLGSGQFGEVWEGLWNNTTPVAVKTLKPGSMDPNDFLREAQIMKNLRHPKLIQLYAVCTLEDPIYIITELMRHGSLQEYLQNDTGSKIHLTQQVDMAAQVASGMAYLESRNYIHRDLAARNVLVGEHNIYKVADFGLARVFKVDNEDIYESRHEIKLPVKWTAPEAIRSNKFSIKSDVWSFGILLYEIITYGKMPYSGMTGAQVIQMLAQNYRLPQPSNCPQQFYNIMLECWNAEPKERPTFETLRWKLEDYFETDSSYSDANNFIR

Sequence of CDK3/cyclinE(h) (Q00526 whole entry): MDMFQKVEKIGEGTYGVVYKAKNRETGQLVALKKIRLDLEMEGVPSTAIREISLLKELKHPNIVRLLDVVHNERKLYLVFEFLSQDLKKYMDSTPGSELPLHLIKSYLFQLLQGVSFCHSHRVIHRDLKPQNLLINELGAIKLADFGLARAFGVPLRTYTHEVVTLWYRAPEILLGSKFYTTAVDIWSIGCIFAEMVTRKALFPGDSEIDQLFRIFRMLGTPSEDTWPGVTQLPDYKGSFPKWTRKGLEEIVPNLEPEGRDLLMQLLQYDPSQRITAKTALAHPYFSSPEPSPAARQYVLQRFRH
Sequence of CDK3/cyclinE(h) (P24864 whole entry partner): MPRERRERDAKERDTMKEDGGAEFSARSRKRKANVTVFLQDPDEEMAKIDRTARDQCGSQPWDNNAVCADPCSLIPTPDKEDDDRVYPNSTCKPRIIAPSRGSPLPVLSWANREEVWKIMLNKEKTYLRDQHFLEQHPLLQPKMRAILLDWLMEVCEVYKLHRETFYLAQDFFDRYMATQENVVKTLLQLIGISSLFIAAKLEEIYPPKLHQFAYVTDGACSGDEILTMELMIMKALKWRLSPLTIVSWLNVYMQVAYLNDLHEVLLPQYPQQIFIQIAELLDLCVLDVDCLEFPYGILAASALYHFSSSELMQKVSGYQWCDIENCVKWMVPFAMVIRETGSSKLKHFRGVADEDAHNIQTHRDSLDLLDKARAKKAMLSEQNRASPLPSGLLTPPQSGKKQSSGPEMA
Sequence of MST3(h) (Q9Y6E0 whole entry): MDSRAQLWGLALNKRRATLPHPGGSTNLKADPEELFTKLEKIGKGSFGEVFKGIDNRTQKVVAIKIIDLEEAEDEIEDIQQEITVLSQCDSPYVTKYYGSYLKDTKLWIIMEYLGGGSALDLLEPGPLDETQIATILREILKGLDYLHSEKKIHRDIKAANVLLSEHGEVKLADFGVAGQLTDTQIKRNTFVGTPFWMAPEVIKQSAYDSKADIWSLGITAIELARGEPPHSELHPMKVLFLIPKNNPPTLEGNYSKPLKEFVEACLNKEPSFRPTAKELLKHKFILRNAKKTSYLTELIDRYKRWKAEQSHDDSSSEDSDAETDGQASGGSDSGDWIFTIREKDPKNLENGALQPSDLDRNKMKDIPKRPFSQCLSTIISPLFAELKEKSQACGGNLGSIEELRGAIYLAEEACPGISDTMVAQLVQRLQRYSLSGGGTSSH
Sequence of CK1δ(h) (P48730 whole entry): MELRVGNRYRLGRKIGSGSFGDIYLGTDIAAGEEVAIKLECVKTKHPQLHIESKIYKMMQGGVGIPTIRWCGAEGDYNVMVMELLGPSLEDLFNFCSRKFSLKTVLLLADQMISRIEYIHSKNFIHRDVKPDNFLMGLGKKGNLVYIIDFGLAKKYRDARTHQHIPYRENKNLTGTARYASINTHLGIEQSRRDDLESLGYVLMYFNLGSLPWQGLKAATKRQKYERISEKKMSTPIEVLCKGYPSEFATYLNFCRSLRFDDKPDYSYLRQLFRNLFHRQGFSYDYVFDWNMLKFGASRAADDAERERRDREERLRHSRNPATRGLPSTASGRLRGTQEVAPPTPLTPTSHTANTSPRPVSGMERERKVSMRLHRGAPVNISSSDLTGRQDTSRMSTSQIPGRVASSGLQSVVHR
Sequence of PKCβII(h) (P05771 1-673 isoform P05771-2): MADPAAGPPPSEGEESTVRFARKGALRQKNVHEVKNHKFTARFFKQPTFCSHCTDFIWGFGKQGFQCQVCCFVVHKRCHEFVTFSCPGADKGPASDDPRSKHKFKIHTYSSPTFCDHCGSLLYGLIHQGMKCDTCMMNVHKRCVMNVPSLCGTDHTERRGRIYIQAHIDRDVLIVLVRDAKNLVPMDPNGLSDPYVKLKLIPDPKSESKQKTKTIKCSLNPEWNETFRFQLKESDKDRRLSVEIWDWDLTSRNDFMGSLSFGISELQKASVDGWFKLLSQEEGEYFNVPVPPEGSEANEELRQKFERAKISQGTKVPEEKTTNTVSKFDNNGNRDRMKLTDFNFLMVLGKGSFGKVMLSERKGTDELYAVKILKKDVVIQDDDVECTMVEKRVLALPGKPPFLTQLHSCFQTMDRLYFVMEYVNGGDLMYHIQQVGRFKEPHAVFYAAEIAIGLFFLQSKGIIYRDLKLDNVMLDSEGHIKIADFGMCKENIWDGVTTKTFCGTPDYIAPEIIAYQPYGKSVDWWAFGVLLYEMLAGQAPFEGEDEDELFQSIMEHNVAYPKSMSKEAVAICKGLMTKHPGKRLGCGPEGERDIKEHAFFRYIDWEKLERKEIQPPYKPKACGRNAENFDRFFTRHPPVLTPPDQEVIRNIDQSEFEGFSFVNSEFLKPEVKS
Sequence of MARK1(h) (Q9P0L2 whole entry): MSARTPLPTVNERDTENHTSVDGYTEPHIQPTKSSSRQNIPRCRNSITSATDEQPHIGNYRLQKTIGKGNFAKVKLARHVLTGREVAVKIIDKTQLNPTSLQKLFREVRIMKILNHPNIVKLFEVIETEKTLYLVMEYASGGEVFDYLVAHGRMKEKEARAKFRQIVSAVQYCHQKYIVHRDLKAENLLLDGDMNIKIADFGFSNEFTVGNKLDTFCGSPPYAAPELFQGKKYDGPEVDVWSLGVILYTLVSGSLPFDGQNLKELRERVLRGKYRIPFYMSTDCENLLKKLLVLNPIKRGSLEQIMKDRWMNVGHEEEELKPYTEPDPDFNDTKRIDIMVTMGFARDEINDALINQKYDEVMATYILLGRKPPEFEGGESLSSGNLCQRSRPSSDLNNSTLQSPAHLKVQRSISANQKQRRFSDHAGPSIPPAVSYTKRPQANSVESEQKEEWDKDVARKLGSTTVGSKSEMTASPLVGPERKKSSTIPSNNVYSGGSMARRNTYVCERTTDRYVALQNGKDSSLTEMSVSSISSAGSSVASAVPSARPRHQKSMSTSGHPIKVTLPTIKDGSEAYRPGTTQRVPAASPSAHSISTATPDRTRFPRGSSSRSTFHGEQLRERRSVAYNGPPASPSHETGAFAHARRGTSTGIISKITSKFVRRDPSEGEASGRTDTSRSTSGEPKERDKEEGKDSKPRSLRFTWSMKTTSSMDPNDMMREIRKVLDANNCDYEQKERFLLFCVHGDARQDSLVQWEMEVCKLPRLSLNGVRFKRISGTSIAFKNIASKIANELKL

CC(C)CCC(=O)[C@]1(O)C(O)=C(C(=O)C(C)C)C(=O)[C@H]1CCC(C)C [TH2, tetrahydroiso-cohumulone]
kinase inhibition (Aurora-A(h); 1 μg/ml): 65% of control | kinase inhibition (Aurora-A(h); 5 μg/ml): 24% of control | kinase inhibition (Aurora-A(h); 25 μg/ml): 71% of control | kinase inhibition (Aurora-A(h); 50 μg/ml): 57% of control | kinase inhibition (Aurora-A(h); 100 μg/ml): 54% of control | kinase inhibition (CDK3/cyclinE(h); 1 μg/ml): 102% of control | kinase inhibition (CDK3/cyclinE(h); 5 μg/ml): 104% of control | kinase inhibition (CDK3/cyclinE(h); 25 μg/ml): 120% of control | kinase inhibition (CDK3/cyclinE(h); 50 μg/ml): 103% of control | kinase inhibition (CDK3/cyclinE(h); 100 μg/ml): 84% of control | kinase inhibition (CK1δ(h); 1 μg/ml): 105% of control | kinase inhibition (CK1δ(h); 5 μg/ml): 112% of control | kinase inhibition (CK1δ(h); 25 μg/ml): 108% of control | kinase inhibition (CK1δ(h); 50 μg/ml): 80% of control | kinase inhibition (CK1δ(h); 100 μg/ml): 53% of control | kinase inhibition (GRK7(h); 1 μg/ml): 110% of control | kinase inhibition (GRK7(h); 5 μg/ml): 95% of control | kinase inhibition (GRK7(h); 25 μg/ml): 102% of control | kinase inhibition (GRK7(h); 50 μg/ml): 91% of control | kinase inhibition (GRK7(h); 100 μg/ml): 99% of control | kinase inhibition (MARK1(h); 1 μg/ml): 109% of control | kinase inhibition (MARK1(h); 5 μg/ml): 110% of control | kinase inhibition (MARK1(h); 25 μg/ml): 97% of control | kinase inhibition (MARK1(h); 50 μg/ml): 90% of control | kinase inhibition (MARK1(h); 100 μg/ml): 63% of control | kinase inhibition (MST3(h); 1 μg/ml): 107% of control | kinase inhibition (MST3(h); 5 μg/ml): 89% of control | kinase inhibition (MST3(h); 25 μg/ml): 87% of control | kinase inhibition (MST3(h); 50 μg/ml): 46% of control | kinase inhibition (MST3(h); 100 μg/ml): 45% of control | kinase inhibition (MuSK(h); 1 μg/ml): 104% of control | kinase inhibition (MuSK(h); 5 μg/ml): 101% of control | kinase inhibition (MuSK(h); 25 μg/ml): 99% of control | kinase inhibition (MuSK(h); 50 μg/ml): 98% of control | kinase inhibition (MuSK(h); 100 μg/ml): 97% of control | kinase inhibition (PKCβII(h); 1 μg/ml): 107% of control | kinase inhibition (PKCβII(h); 5 μg/ml): 105% of control | kinase inhibition (PKCβII(h); 25 μg/ml): 99% of control | kinase inhibition (PKCβII(h); 50 μg/ml): 103% of control | kinase inhibition (PKCβII(h); 100 μg/ml): 98% of control | kinase inhibition (PTK5(h); 1 μg/ml): 116% of control | kinase inhibition (PTK5(h); 5 μg/ml): 105% of control | kinase inhibition (PTK5(h); 25 μg/ml): 113% of control | kinase inhibition (PTK5(h); 50 μg/ml): 112% of control | kinase inhibition (PTK5(h); 100 μg/ml): 116% of control
